Test results taken from article PMC5513091, “A novel Alzheimer’s disease drug candidate targeting inflammation and fatty acid metabolism” (Alzheimer's Research & Therapy, 2017).
pEC50: −log10 of the molar value. Read-outs that look alike come from different tables or passages of the source.

Tests used:
[1] = Acute Toxicity (PO); format: in vivo
[2] = biological target: CYP 1A2 (Homo sapiens, UniProt P05177); test: CYP inhibition; format: in vitro ADME
[3] = test system: APPswe/PS1∆E9 mice; test: Open-field assay; format: in vivo; details: old mice, 200 ppm in chow for 3 months; data not shown
[4] = biological target: CYP 3A4 (Homo sapiens, UniProt P08684); test: CYP inhibition; format: in vitro ADME
CYP 3A4, sequence (P08684 whole entry): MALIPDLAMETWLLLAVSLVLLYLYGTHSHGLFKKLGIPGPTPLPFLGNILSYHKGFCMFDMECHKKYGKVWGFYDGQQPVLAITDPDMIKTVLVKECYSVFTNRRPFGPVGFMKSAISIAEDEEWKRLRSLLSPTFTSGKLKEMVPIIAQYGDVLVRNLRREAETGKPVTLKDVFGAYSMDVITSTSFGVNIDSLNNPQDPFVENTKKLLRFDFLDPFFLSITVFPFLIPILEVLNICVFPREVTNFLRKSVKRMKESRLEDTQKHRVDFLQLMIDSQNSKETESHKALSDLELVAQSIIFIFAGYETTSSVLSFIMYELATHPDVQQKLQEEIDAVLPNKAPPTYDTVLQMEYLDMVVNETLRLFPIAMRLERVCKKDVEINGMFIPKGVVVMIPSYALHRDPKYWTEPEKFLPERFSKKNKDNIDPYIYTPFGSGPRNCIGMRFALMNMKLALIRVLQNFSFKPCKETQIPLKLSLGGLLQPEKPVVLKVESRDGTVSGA

[5] = test system: primary cortical neurons; test: Oxytosis; format: cell-based; details: Primary cortical neuron; read-out: Half-maximal effective concentration, Oxytosis
Protocol: (§1) The various phenotypic screening assays were conducted as previously described. Briefly, HT-22, primary cortical neurons, or MC65 was plated and exposed to the different environmental stresses. Cells were treated with varying concentrations of CAD-31, and half-maximal effective concentration (EC50) was determined on the basis of cell viability.
• An assay that mimics the dramatic loss of neurotrophic support in the old brain is the trophic factor withdrawal assay. Primary embryonic day 18 cortical cells are plated at low density in serum-free medium. At low density, the cells die within 2 days; they can be rescued by combinations of neurotrophic growth factors, but not by one alone ([19] and unpublished data). […] BDNF is a molecule that is also involved in promoting memory and neurogenesis and is reduced in the brain with age and in AD, as well as in other neurological disorders. BDNF has long been considered a drug target for AD [23]. […] A reduction in GSH is a common denominator of old age and essentially all chronic central nervous system (CNS) diseases. J147 and CAD-31 both effectively reduce oxidative stress, with EC50 of 6 nM and 20 nM, respectively. • CAD-31 also prevents loss of energy metabolism that leads to neuron cell death in an in vitro ischemia model. […]

[6] = test system: MC65; test: Aβ toxicity (intracellular); format: cell-based, human; details: read-out: Half-maximal effective concentration, Aβ toxicity (intracellular)
Protocol: as §1
• An assay that mimics the dramatic loss of neurotrophic support in the old brain is the trophic factor withdrawal assay. Primary embryonic day 18 cortical cells are plated at low density in serum-free medium. At low density, the cells die within 2 days; they can be rescued by combinations of neurotrophic growth factors, but not by one alone ([19] and unpublished data). […] BDNF is a molecule that is also involved in promoting memory and neurogenesis and is reduced in the brain with age and in AD, as well as in other neurological disorders. BDNF has long been considered a drug target for AD [23]. […] A reduction in GSH is a common denominator of old age and essentially all chronic central nervous system (CNS) diseases. J147 and CAD-31 both effectively reduce oxidative stress, with EC50 of 6 nM and 20 nM, respectively. • CAD-31 also prevents loss of energy metabolism that leads to neuron cell death in an in vitro ischemia model. […] Intracellular Aβ toxicity was assayed in the human neuron cell line MC65 that conditionally expresses the C99 fragment of the amyloid precursor protein. When the cells are induced to make Aβ, the cells die within 4 days. Both J147 and CAD-31 block this toxicity at around 10 nM. Therefore, CAD-31 has a repertoire of neuroprotective activities similar but not identical to that of its parent compound, J147.

[7] = test system: DCX; test: Immunoblotting of hippocampal tissue; format: in vivo, mice; details: hippocampus
Protocol: (§2) Hippocampal tissue samples were homogenized in 10 volumes of radioimmunoprecipitation assay (RIPA) lysis buffer (50 mM Tris, pH 7.5, 150 mM NaCl, 0.1% SDS, 0.5% deoxycholate, and 1% Nonidet P-40) containing a cocktail of protease and phosphatase inhibitors [[…] each of pepstatin A, aprotinin, phosphoramidon, and leupeptin; 0.5 mM 4-(2-aminoethyl)benzenesulfonyl fluoride hydrochloride; 1 mM ethylene glycol-bis(β-aminoethyl ether)-N,N,N′,N′-tetraacetic acid; 5 mM fenvalerate; and 5 mM cantharidin]. Samples were sonicated (2 × 10 seconds) and centrifuged first at 10,000 × g for 10 minutes and then at 100,000 × g for 60 minutes at 4 °C. The 100,000 × g pellet was taken up either in 6 M guanidine for Aβ analysis or in SDS sample buffer for Western blot analysis. Protein concentrations in the cell extracts were determined using a bicinchoninic acid protein assay (Pierce Biotechnology, Rockford, IL, USA). Equal amounts of protein were solubilized in 2.5× SDS sample buffer, separated on 12% SDS-polyacrylamide gels, transferred to Immobilon-P (EMD Millipore, Billerica, MA, USA), and immunoblotted with the antibodies indicated in the Materials subsection above. For Western blot experiments, protein levels were normalized to actin levels. An unpaired t test was performed to compare two groups at a single time point. When comparing multiple groups, one-way analysis of variance (ANOVA) followed by Tukey’s post hoc test was used. All statistical analysis was conducted using GraphPad InStat software.

[8] = test system: ubiquitinated proteins; test: Immunoblotting of hippocampal tissue; format: in vivo, mice; details: hippocampus
Protocol: as §2

[9] = Body weights and food consumption during feeding study; format: in vivo, mice; details: 200 ppm in diet for 3 months, measured weekly; data not shown
Protocol: The APPswe/PS1∆E9-transgenic mice were characterized previously. Line 85 mice carry two transgenes, the mouse/human chimeric APPswe, linked to Swedish familial AD and human PS1∆E9. At 10 months of age, female transgenic mice were fed a defined diet (Harlan Teklad; Envigo, Indianapolis, IN, USA) with and without CAD-31 (200 ppm, approximately 10 mg/kg/day). Treatment continued for 3 months, followed by behavior testing and tissue harvesting.

[10] = Micronucleus assay
[11] = test system: panel of 60 brain ion channels, transporters, and receptors; test: Lead Profile Screen; format: binding
Description: Before undertaking animal experiments, it is important to determine if a new drug candidate has a chance for further clinical development by determining its pharmacological properties of bioavailability and brain penetrance as well as predicted safety.

CYP 1A2, sequence (P05177 whole entry): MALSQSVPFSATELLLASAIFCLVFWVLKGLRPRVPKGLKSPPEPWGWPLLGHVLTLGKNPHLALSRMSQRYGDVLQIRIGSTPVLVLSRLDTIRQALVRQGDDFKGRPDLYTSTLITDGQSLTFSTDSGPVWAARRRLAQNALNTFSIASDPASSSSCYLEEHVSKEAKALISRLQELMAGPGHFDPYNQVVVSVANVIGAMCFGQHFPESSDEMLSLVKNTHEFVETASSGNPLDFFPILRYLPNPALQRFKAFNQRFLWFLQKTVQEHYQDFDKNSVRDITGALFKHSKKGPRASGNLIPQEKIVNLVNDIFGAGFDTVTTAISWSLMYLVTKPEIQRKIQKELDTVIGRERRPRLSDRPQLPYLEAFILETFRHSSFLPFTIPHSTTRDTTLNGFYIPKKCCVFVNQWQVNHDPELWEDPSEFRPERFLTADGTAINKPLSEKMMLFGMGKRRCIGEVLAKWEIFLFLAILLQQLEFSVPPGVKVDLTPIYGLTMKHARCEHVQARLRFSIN

SMILES: Cc1ccc(N(/N=C/c2cccc(OC(F)(F)F)c2)C(=O)C(F)(F)F)c(C)c1 [CAD-31]
- acute toxicity [1]: no sign of acute toxicity
- Oral acute toxicity LD50 ([1]; observation one week post gavage): >2000 mg/kg
- EC50 at 10 µM [2]: > 10000 nM
- open-field assay, overt toxicity [3]: no differences between groups
- EC50 at 10 µM [4]: > 10000 nM
- pEC50 [5]: 7.70
- pEC50 ([6]; Homo sapiens, MC65, MC65): ~8.00
- pEC50 ([6]; MC65): 7.92
- expression of the NPC marker DCX [7]: increased the expression of the NPC marker DCX in the hippocampus
- RIPA-insoluble ubiquitinated proteins ([8]; 13-month-old WT and AD mice): reduced
- ubiquitinated proteins in the soluble fraction ([8]; data not shown): unchanged
- body weights and food consumption [9]: no significant differences between the groups
- EC50 at 10 µM [10]: > 10000 nM
- activity in the micronucleus assay ([10]; 10 μM): showed no sign of acute toxicity or activity
- interaction with proteins in the lead profile screen panel ([11]; 10 μM, 60 brain ion channels, transporters, and receptors): did not interact
- pEC50 ([11]; all targets of the panel): < 5.00
